{
  "source": "patent US20100330029A1",
  "about": "“Cancer Treatments with Radiation and Immunocytokines” (Merck Patent GmbH, priority 2008, published 2010)",
  "key": {"CT26 colon carcinoma": {"tested_on": "CT26 colon carcinoma", "experiment": "tumor growth assay, CT26 model", "format": "in vivo, mice", "details": "Experiment CT26-4; 8 Gy followed by i.v. EMD521873 days 2, 3, 4", "from_the_text": "(§1) CT26 cells, a murine colon epithelial cell line derived by intrarectal injection of N-nitroso-N-methylurethane in BALB/C mice, were transfected to express the human KS antigen (KSA or EpCAM) that was cloned by PCR and expressed in parental cells using a retroviral vector (Gillies 1998). CT26/KSA cells were maintained in DMEM, supplemented with 10% heat inactivated fetal bovine serum, L-glutamine, vitamins, sodium pyruvate, non-essential amino acids, penicillin/streptomycin and Geneticin® (G418) (Life Technologies, Inc.) at 37° C. and 7% CO2. G418 was added to maintain KSA expression. CT26 and CT26/KSA cells were implanted in female BALB/C mice.\n(§2) For the tumor growth assay, cells growing exponentially in culture were injected as a single cell suspension in 100 μl of PBS intramuscularly into the upper legs of the mice. In experiments using a dual tumor model, cells were also implanted in the flanks of the mice. […] Thereafter, animal survival was monitored. […] Mice were treated on days 0 to 6 and day 17, and tumor size was measured twice weekly for the duration of the study.\n(§3) Tumors were measured with calipers in three dimensions for the duration of the experiment. Tumor volumes were calculated using the equation: […]\nIn the CT26 model (Experiment CT26-4), tumors were irradiated with either 4 or 8 Gy followed by i.v. EMD521873 on days 2, 3, and 4. […] Immune response in the tumor was not monitored."}, "[1]": {"tested_on": "CD8 effector cells in the blood", "experiment": "FACS analysis of blood, LLC dual tumor model", "format": "in vivo, mice", "details": "Experiment LLC-6; combination compared to either chemoradiation or EMD521873 alone", "description": "(§4) Immune effector cell populations in blood were analyzed by FACS. Blood was collected from the retro-orbital sinus of each mouse. Red blood cells were eliminated using lysis buffer. After blocking with rat IgG (1:50), samples were incubated with a 7-color cocktail of antibodies against CD4, CD8, CD25, CD44, CD62L, CD11b, and DX5. Samples were run on a FacsARIA and analyzed for various cell subpopulations.\n(§5) In another experiment, LLC tumors were established subcutaneously in both the leg and flank of the same animal. Animals were then treated with either cisplatin (4 mg/kg, d0) plus fractionated radiation given to the leg tumor (3.6 Gy/d, d0-4), i.v. EMD521873 alone (5 mg/kg, d7, 8, 9), or the combination of EMD521873 plus chemoradiation (Experiment LLC-6). Tumor growth and immune response in both the irradiated leg tumor and the non-irradiated flank tumor were monitored. […] CD8 effector cells were increased by approximately 4-fold in the blood with the combination compared to either chemoradiation or EMD521873 alone."}, "[2]": {"tested_on": "immune effector cell populations in blood", "experiment": "FACS analysis of immune effector cell populations in blood, CT26/KSA model", "format": "in vivo, mice", "description": "as §4"}, "CT26/KSA colon carcinoma": {"tested_on": "CT26/KSA colon carcinoma", "experiment": "tumor growth assay, CT26/KSA model", "format": "in vivo, mice", "details": "Experiments CT26-1-3; 3 or 4 Gy day 0 followed by EMD521873 5 mg/kg i.v. days 2, 3, 4", "from_the_text": "as §1\nas §2, with “legs” for “legs of the mice. In experiments using a dual tumor model, cells were also implanted in the flanks”\nas §3\nThe effect of a single dose of radiation given on day 0 followed by i.v. dosing of the immunocytokine (5 mg/kg) was evaluated in three subcutaneous syngeneic tumor models (CT26 colon carcinoma, CT26/KSA colon carcinoma which expresses human EpCAM, and B16 melanoma). […]"}, "[3]": {"tested_on": "T cell and T cell activation-associated genes in the tumor", "experiment": "qPCR gene profiling of tumors, CT26/KSA model", "format": "in vivo, mice", "description": "Gene profiling of tumors was analyzed using excised tumor tissues placed in RNAlater® RNA stabilizing reagent upon harvest. Total RNA was prepared with an RNeasy® kit (Qiagen) and cDNA was prepared with the Superscript® III kit for qPCR (Life Technologies, Inc.). qPCR reactions were performed on an ABI7500 instrument in a standardized fashion and relative changes in gene expression were analyzed using the ddCt method (efficiency factor 95%). Housekeeping genes used for comparison included ACTB, B2M and HPRT1."}, "CT26-specific T-cells": {"tested_on": "CT26-specific T-cells", "experiment": "ELISPOT assay for IFNγ induction in splenocytes, CT26/KSA model", "format": "in vivo, mice", "details": "radiation followed by EMD521873, compared to either therapy alone", "description": "Enzyme-linked immunospot C (ELISPOT) assays for IFNγ induction in splenocytes were conducted by first coating ELISPOT plates with an anti-IFNγ antibody (murine IFNγ kit, BD Biosciences). Splenocytes from treated mice were added to the plates and incubated with an AH1:A5 peptide to stimulate IFNγ release from CT26-specific T-cells. Biotinylated IFNγ detection Ab and streptavidin-HRP were added to the plates. Resultant spots from individual IFNγ-producing lymphocytes were counted using a Zeiss® KS-ELISPOT plate reader."}, "[4]": {"tested_on": "Lewis Lung Carcinoma cells", "experiment": "rechallenge of cured mice with Lewis Lung Carcinoma cells", "format": "in vivo", "description": "The ability of irradiation followed by intravenous administration of the exemplary immunocytokine EMD521873 to generate a long lasting immune response was tested by rechallenging cured mice with tumor cells. Mice bearing Lewis Lung Carcinoma tumors were originally treated with either fractionated radiation (3.6 Gy/d, d0-4) plus cisplatin (4 mg/kg, d0), EMD521873 alone (5 mg/kg, d7, 8, 9), or the combination of EMD521873 plus chemoradiation."}, "[5]": {"tested_on": "CD8 cell infiltration in tumors", "experiment": "immunohistochemical analysis of CD8 cell infiltration in LLC tumors", "format": "in vivo, mice", "details": "Experiment LLC-6; combination compared to the monotherapies", "description": "as §5"}, "[6]": {"details": "radiation followed by EMD521873 (combination)"}},
  "data": [
    {"substance": "dI-NHS76γ2(h)(FN>AQ)-ala-IL2(D20T) [EMD521873]", "values": [
      {"measurement": "tumor growth", "setting": "CT26 colon carcinoma", "value": "blocked tumor growth beyond either therapy alone"},
      {"measurement": "CD8 effector cells increased in the blood", "setting": "[1]", "value": "approximately 4 fold"},
      {"measurement": "CD4+CD25+ lymphocyte subpopulation in the blood", "setting": "[2]; [6]", "value": "increased"},
      {"measurement": "increase in effector T cells in the blood", "setting": "[2]; radiation followed by EMD521873, compared to either therapy alone", "value": 4, "unit": "fold"},
      {"measurement": "anti-tumor effect (complete regressions)", "setting": "CT26/KSA colon carcinoma", "value": "a majority of the animals achieved complete regressions"},
      {"measurement": "levels of FoxP3 gene expression in the tumor", "setting": "[3]; [6]", "value": "did not increase"},
      {"measurement": "CD8, Granzyme B, and IFNγ gene expression increase in the tumor", "setting": "[3]; radiation followed by EMD521873, compared to either EMD521873 or radiation alone", "value": "3.5-4.6 fold"},
      {"measurement": "increase in T cell response (ELISPOT, endogenous CT26 antigen)", "setting": "CT26-specific T-cells", "value": "> 4", "unit": "fold"},
      {"measurement": "mice with complete response that did not regrow tumor on rechallenge", "setting": "[4]; EMD521873/Chemoradiation treatment, s.c. LLC rechallenge after complete remission >50 days", "value": "12 out of 13"},
      {"measurement": "Immunity to Rechallenge", "setting": "[4]; Exp LLC-4, cured C57BL/6 mice rechallenged with LLC cells", "value": "0/1"},
      {"measurement": "mice with complete responses immune to rechallenge with LLC cells", "setting": "[4]; LLC-8, LLC-9, combination with chemoradiation", "value": "Four out of 4"},
      {"measurement": "CD8 cell infiltration enhanced, irradiated lesion", "setting": "[5]", "value": 9, "unit": "fold"},
      {"measurement": "CD8 cell infiltration enhanced, non-irradiated lesion", "setting": "[5]", "value": 3.5, "unit": "fold"}
    ]}
  ]
}
